In patent US12583823B2, “Crystal form of Daprodustat, preparation method therefor and use thereof” (priority 2019, dated 2026):

Experiment: Saturation solubility in water (HPLC)
Type: physicochemical
Settings: for Saturation solubility: stirring at room temperature for 12 h, HPLC
Excerpt: Test product: the crystal form M, crystal form CS1, crystal form CS9 and crystal form K of the compound of the formula (I), preparation methods thereof being respectively shown in Example 1, Comparative example 1, Comparative example 2 and Comparative example 3.
The operating conditions of HPLC were as follows: • Instrument: high performance liquid chromatograph (model: Thermo U3000) • Chromatographic column: Agilent C18 column (5 μm, 150 mm×4.6 mm) • Mobile phase composition and gradient elution procedure:
• Detection wavelength: 260.4 nm • Flow rate: 1 mL/min • Injection volume: 15 μL • Column temperature: 30° C.

Compound	Saturation solubility [µg/mL]	Saturation solubility compared with those of the crystal form K, the crystal form CS1 and the crystal form CS9 (result in words)
O=C(O)CNC(=O)C1C(=O)N(C2CCCCC2)C(=O)N(C2CCCCC2)C1=O [Crystal form CS1, N-[(1,3-dicyclohexylhexahydro-2,4,6-trioxo-5-pyrimidinyl)carbonyl]glycine, reference compound]	24.48	–
O=C(O)CNC(=O)C1C(=O)N(C2CCCCC2)C(=O)N(C2CCCCC2)C1=O [Crystal form CS9, N-[(1,3-dicyclohexylhexahydro-2,4,6-trioxo-5-pyrimidinyl)carbonyl]glycine, reference compound]	19.4	–
O=C(O)CNC(=O)C1C(=O)N(C2CCCCC2)C(=O)N(C2CCCCC2)C1=O [Crystal form K, N-[(1,3-dicyclohexylhexahydro-2,4,6-trioxo-5-pyrimidinyl)carbonyl]glycine]	23.36	–
O=C(O)CNC(=O)C1C(=O)N(C2CCCCC2)C(=O)N(C2CCCCC2)C1=O [Crystal form M, N-[(1,3-dicyclohexylhexahydro-2,4,6-trioxo-5-pyrimidinyl)carbonyl]glycine]	42.47	significantly higher
